Measured values taken from US20080161305A1, “C-Met Modulators and Methods of Use” (EXELIXIS, INC., priority 2005, published 2008).

Key:
Format in all cases: biochemical
[1] = target: c-Met (baculovirus expressed human c-Met kinase domain P948-S1343) (Homo sapiens, UniProt P08581); experiment: c-Met Luciferase-Coupled Chemiluminescent Kinase assay (LCCA); conditions: 1 μM ATP, 10 nM c-Met
Experimental: (§1) Kinase activity and compound inhibition are investigated using one or more of the three assay formats described below. The ATP concentrations for each assay are selected to be close to the Michaelis-Menten constant (KM) for each individual kinase. Dose-response experiments are performed at 10 different inhibitor concentrations in a 384-well plate format. The data are fitted to the following four-parameter equation:
(§2) Y=Min+(Max−Min)/(1+(X/IC50)̂H)
(§3) where Y is the observed signal, X is the inhibitor concentration, Min is the background signal in the absence of enzyme (0% enzyme activity), Max is the signal in the absence of inhibitor (100% enzyme activity), IC50 is the inhibitor concentration at 50% enzyme inhibition and H represents the empirical Hill's slope to measure the cooperativity. Typically H is close to unity. c-Met Assay
c-Met biochemical activity was assessed using a Luciferase-Coupled Chemiluminescent Kinase assay (LCCA) format as described above. Again, kinase activity was measured as the percent ATP remaining following the kinase reaction. Remaining ATP was detected by luciferase-luciferin-coupled chemiluminescence. […] The mixture is incubated at ambient temperature for 2 hours after which 20 uL luciferase-luciferin mix is added and the chemiluminescent signal read using a Wallac Victor^2 reader. […]

[2] = target: T1, KDR (baculovirus expressed human KDR kinase domain D807-V1356) (Homo sapiens, UniProt P35968); experiment: KDR Luciferase-Coupled Chemiluminescent Kinase assay (LCCA); conditions: 3 μM ATP, 5 nM KDR
T1 construct: human KDR kinase domain D807-V1356; made in house
T1 sequence (P35968 807-1356): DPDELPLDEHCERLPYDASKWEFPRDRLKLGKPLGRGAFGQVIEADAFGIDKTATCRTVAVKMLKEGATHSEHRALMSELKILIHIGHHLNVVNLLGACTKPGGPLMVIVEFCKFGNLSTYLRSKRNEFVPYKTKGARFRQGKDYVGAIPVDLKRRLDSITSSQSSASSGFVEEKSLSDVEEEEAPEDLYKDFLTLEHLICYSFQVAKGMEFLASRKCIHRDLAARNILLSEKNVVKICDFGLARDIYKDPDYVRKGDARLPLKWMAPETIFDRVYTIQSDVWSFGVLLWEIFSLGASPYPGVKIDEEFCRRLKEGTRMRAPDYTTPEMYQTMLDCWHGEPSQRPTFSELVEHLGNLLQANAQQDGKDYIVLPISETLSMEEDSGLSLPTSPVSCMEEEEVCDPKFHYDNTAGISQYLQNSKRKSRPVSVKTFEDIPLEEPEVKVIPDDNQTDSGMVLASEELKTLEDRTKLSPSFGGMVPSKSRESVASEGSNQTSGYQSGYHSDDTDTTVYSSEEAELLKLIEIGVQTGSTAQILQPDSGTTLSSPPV
Experimental: as §1, §2, §3
KDR biochemical activity was assessed using a Luciferase-Coupled Chemiluminescent Kinase assay (LCCA) format. Kinase activity was measured as the percent ATP remaining following the kinase reaction. Remaining ATP was detected by luciferase-luciferin-coupled chemiluminescence. […] The mixture is incubated at ambient temperature for 4 hours after which 20 uL luciferase-luciferin mix is added and the chemiluminescent signal read using a Wallac Victor^2 reader. […]

c-Kit kinase = c-Kit kinase (Homo sapiens, UniProt P10721); experiment: c-Kit AlphaScreen assay
c-Kit kinase, sequence (P10721 26-976): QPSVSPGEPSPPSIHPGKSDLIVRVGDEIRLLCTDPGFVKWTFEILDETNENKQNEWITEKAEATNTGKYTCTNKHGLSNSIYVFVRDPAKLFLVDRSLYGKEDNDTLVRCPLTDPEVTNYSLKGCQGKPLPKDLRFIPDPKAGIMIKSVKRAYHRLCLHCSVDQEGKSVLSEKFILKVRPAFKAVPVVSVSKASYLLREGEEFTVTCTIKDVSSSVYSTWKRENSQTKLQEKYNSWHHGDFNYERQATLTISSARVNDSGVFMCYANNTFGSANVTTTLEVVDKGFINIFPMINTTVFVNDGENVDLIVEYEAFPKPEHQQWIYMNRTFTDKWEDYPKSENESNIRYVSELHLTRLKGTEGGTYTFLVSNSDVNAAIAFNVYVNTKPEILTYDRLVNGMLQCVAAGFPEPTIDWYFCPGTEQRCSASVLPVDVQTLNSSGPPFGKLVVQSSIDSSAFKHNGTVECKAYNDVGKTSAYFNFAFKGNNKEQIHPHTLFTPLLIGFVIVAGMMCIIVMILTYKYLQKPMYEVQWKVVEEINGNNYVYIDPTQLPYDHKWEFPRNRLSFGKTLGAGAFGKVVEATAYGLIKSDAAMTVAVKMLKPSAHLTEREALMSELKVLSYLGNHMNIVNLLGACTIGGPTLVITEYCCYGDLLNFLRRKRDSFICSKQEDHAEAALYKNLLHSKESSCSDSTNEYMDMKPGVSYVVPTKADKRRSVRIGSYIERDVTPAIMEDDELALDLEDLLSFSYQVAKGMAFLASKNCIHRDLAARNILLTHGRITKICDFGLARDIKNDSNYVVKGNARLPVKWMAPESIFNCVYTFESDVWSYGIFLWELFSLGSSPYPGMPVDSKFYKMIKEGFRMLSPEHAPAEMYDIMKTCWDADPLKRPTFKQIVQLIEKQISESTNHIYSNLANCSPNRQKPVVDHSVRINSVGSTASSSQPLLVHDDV
Experimental: as §1, §2, §3
c-Kit biochemical activity was assessed using AlphaScreen™ (Perkin Elmer) technology, described above. Test compounds, ATP, biotinylated poly(Glu, Tyr) and c-Kit kinase were combined in a volume of 20 μL in a 384-well white, medium binding microtiter plate (Greiner). Reaction mixtures were incubated for 1 hr at ambient temperature. […] After 16 hr incubation at ambient temperature plates were read using an AlphaQuest reader (Perkin Elmer).

[3] = target: T2, Flt-3 (baculovirus expressed human Flt-3 kinase domain R571-S993) (Homo sapiens, UniProt P36888); experiment: flt-3 Luciferase-Coupled Chemiluminescent Kinase assay (LCCA); conditions: 5 μM ATP, 5 nM Flt-3; read-out: flt3 IC50
T2 construct: human Flt-3 kinase domain R571-S993; made in house
T2 sequence (P36888 571-993): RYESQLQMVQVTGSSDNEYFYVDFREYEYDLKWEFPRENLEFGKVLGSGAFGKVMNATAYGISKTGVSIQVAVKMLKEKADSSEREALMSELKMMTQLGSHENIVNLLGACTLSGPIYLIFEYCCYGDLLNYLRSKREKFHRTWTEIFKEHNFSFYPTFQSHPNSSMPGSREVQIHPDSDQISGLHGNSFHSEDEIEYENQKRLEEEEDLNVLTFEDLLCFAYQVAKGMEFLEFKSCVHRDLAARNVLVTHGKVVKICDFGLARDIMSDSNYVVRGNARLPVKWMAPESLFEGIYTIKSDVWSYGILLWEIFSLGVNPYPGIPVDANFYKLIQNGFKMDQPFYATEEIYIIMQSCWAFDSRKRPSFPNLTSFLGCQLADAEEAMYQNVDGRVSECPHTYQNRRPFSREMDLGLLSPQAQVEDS
Experimental: as §1, §2, §3
Biochemical activity for flt-3 was assessed using a Luciferase-Coupled Chemiluminescent Kinase assay (LCCA) format. Kinase activity was measured as the percent ATP remaining following the kinase reaction. Remaining ATP was detected by luciferase-luciferin-coupled chemiluminescence. […] The mixture is incubated at ambient temperature for 3 hours after which 20 uL luciferase-luciferin mix is added and the chemiluminescent signal read using a Wallac Victor^2 reader. […]

[4] = target: T3, Flt-4 (baculovirus expressed human Flt-4 kinase domain D725-R1298) (Homo sapiens, UniProt P35916); experiment: flt-4 Alphascreen Tyrosine Kinase assay; conditions: 5 μM ATP, 1 nM Flt-4; read-out: flt4 IC50
T3 construct: human Flt-4 kinase domain D725-R1298; made in house
T3 sequence (P35916 725-1298 isoform P35916-1): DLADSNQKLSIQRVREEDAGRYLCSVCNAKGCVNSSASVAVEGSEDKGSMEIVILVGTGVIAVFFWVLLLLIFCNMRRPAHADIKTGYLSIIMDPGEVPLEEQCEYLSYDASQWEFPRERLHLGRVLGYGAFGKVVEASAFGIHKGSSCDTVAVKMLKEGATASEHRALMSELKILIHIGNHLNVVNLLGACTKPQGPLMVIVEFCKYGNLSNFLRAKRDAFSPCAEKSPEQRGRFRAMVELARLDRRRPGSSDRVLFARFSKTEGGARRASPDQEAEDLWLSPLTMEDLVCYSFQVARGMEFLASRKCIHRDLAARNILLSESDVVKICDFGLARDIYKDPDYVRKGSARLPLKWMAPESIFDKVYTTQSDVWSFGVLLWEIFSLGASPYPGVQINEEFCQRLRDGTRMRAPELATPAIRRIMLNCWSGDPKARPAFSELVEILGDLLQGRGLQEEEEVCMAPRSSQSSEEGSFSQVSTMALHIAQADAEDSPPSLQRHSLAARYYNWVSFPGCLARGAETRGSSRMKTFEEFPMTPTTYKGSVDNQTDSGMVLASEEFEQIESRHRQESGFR
Experimental: as §1, §2, §3
Biochemical activity for flt-4 was assessed using an Alphascreen Tyrosine Kinase protocol. AlphaScreen™ (Perkin Elmer) technology is a proximity assay employing microparticles. […] Substrate phosphorylation was measured by addition of donor/acceptor beads by chemiluminescence following donor-acceptor bead complex formation. […] After 2-16 hr incubation at ambient temperature plates were read using an AlphaQuest reader (Perkin Elmer). IC50 values correlate well with those determined by radiometric assays.

Measured: IC50

c-Met (baculovirus expressed human c-Met kinase domain P948-S1343), sequence (P08581 1078-1345 limits assumed): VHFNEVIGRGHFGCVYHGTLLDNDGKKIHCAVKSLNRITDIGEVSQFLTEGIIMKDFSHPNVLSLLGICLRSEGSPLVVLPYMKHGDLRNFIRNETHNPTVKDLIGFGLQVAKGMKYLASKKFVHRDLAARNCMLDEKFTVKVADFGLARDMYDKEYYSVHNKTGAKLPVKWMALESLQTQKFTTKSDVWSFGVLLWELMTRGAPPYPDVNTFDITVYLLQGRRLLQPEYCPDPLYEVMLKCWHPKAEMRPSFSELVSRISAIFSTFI

COc1cc2c(Oc3ccc(NC(=O)C(=O)NCCc4ccc(F)cc4)cc3F)ccnc2cc1OCCCN1CCOCC1 [Entry 1, N-[3-fluoro-4-({6-(methyloxy)-7-[(3-morpholin-4-ylpropyl)oxy]quinolin-4-yl}oxy)phenyl]-N′-[2-(4-fluorophenyl)ethyl]ethanediamide]
< 50 nM: all assays above
